Experimental data reported in ChEMBL document CHEMBL2150932, “Structure-activity relationships and molecular modeling of 1,2,4-triazoles as adenosine receptor antagonists” (ACS Med Chem Lett, 2012).

Columns and labels:
Adenosine receptor A2a [1] = target: T1, Adenosine receptor A2a (Homo sapiens, UniProt P29274); test: Displacement of [3H]CGS21680 from human A2A adenosine receptor expressed in HEK293 cells after 60 mins by liquid scintillation counting; format: cell-based
[2] = target: T2, Adenosine receptor A2b (Homo sapiens) (UniProt P29275); test: Antagonist activity at human A2B adenosine receptor expressed in CHO cells assessed as inhibition of NECA-induced cAMP accumulation at 10 uM after 20 mins; format: functional, cell-based
T2 sequence (whole entry): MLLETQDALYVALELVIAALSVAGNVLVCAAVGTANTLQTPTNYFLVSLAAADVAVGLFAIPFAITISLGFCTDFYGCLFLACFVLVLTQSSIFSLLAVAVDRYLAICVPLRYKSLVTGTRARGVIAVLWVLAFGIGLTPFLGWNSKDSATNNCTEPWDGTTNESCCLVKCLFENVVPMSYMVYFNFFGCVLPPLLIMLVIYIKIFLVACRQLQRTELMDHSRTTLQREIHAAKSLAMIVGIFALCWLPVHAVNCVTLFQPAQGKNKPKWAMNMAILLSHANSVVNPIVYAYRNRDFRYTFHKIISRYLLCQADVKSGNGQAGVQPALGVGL

[3] = target: T3, Adenosine receptor A1 (Homo sapiens) (UniProt P30542); test: Inhibition of human A1 adenosine receptor expressed in CHO cells at 10 uM after 60 mins by liquid scintillation counting; format: cell-based
T3 sequence (whole entry): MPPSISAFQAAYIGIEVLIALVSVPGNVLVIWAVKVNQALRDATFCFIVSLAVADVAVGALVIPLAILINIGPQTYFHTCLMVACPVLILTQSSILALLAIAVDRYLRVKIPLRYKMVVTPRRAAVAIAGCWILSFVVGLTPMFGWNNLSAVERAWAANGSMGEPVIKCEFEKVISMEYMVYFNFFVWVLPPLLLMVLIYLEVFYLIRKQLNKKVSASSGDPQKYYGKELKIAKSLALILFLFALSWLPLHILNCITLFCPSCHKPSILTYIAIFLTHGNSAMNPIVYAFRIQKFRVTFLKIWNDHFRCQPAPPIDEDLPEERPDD

Adenosine receptor A2a [4] = target: T1, Adenosine receptor A2a; test: Displacement of [3H]CGS21680 from human A2A adenosine receptor expressed in HEK293 cells at 10 uM after 60 mins by liquid scintillation counting; format: cell-based
Adenosine receptor A3 = target: T4, Adenosine receptor A3 (Homo sapiens, UniProt P0DMS8); test: Displacement of […] from human A3 adenosine receptor expressed in CHO cells after 60 mins by liquid scintillation counting; format: cell-based
T4 sequence (P0DMS8 whole entry): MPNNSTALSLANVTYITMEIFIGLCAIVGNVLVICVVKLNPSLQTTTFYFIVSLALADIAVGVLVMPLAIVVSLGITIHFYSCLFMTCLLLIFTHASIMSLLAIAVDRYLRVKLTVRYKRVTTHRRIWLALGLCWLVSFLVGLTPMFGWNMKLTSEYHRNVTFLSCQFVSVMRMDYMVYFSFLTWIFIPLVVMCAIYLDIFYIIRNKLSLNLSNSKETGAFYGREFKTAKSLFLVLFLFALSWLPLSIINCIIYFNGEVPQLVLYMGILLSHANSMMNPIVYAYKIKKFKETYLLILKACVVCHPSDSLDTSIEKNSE

Adenosine receptor A1 = target: T5, Adenosine receptor A1 (Homo sapiens, UniProt P30542); test: Inhibition of human A1 adenosine receptor expressed in CHO cells after 60 mins by liquid scintillation counting; format: cell-based
T5 sequence (P30542 whole entry): T3 sequence (whole entry)

[5] = target: T6, Adenosine receptor A3 (Homo sapiens) (UniProt P0DMS8); test: Displacement of […] from human A3 adenosine receptor expressed in CHO cells at 10 uM after 60 mins by liquid scintillation counting; format: cell-based
T6 sequence (whole entry): T4 sequence (P0DMS8 whole entry)

T1 sequence (P29274 whole entry): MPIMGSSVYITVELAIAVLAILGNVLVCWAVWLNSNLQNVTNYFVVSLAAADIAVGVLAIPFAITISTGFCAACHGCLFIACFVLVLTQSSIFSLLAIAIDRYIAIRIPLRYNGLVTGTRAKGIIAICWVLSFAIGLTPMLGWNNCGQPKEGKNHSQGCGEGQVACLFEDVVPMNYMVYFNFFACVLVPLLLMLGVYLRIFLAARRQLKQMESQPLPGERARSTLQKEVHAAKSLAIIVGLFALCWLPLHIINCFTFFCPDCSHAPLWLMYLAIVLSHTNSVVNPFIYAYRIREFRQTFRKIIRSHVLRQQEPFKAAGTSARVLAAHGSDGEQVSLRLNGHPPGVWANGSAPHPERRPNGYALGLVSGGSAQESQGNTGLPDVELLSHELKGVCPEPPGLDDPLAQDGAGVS

Row | Compound | Ki (Adenosine receptor A2a [1]) [nM] | inhibition [2] [%] | inhibition [3] [%] | inhibition (Adenosine receptor A2a [4]) [%] | Ki (Adenosine receptor A3) [nM] | Ki (Adenosine receptor A1) [nM] | inhibition [5] [%]
1 | Cc1cccc(O[C@H](C)C(=O)Nc2nnc(-c3ccccc3)[nH]2)c1 | 1200 |  |  |  |  |  | 
2 | CCCC(=O)Nc1nc(-c2ccccc2)n[nH]1 |  | 5 |  |  |  |  | 
3 | Cc1cc(C)cc(OCC(=O)Nc2nc(-c3ccccc3)n[nH]2)c1 |  | -5 |  |  |  |  | 
4 | COc1ccccc1OCC(=O)Nc1nc(-c2ccc(C)cc2)n[nH]1 |  | -10 | 8 | 49 |  |  | 
5 | O=C(Nc1nc(-c2ccccc2)n[nH]1)c1ccc(Cl)cc1 |  | -2 | 31 |  |  |  | 
6 | CCC(=O)Nc1nc(-c2ccccc2)n[nH]1 | 2500 | 8 | 39 |  | 300 |  | 
7 | Cc1cc(C)cc(OCC(=O)Nc2nnc(-c3ccccc3)[nH]2)c1 | 3200 |  |  |  | 2700 | 1600 | 
8 | C[C@@H](Oc1ccccc1)C(=O)Nc1nc(-c2ccccc2)n[nH]1 | 1000 | 23 |  |  | 3300 | 5200 | 
9 | Cc1ccc(-c2nnc(NC(=O)COc3ccccc3)[nH]2)cc1 | 3600 |  |  |  | 3200 | 6500 | 
10 | C[C@@H](Oc1ccccc1F)C(=O)Nc1nnc(-c2ccccc2)[nH]1 | 1000 |  |  |  | 2600 | 3700 | 
11 | C[C@@H](Oc1cccc(Cl)c1)C(=O)Nc1nnc(-c2ccccc2)[nH]1 | 1000 |  |  |  | 2600 | 1100 | 
12 | CC(C)(Oc1ccc(Cl)cc1)C(=O)Nc1nnc(-c2ccccc2)[nH]1 | 8800 |  |  |  | 500 |  | 
13 | C[C@@H](Sc1ccccc1)C(=O)Nc1nc(-c2ccccc2)n[nH]1 |  | 21 |  |  |  |  | 
14 | COc1ccccc1NC(=O)Nc1nc(-c2ccccc2)n[nH]1 |  | 10 | 22 |  |  |  | 
15 | Cc1ccc(O[C@H](C)C(=O)Nc2nc(-c3ccccc3)n[nH]2)cc1 | 6400 | -6 | 38 |  | 1400 |  | 
16 | COc1ccccc1C(=O)Nc1nc(-c2ccccc2)n[nH]1 | 200 | 16 |  |  | 600 | 500 | 
17 | O=C(Nc1nnc(-c2ccccc2)[nH]1)c1ccc(Cl)cc1 | 2800 |  |  |  | 200 |  | 
18 | CC(C)(Oc1ccc(Cl)cc1)C(=O)Nc1nc(-c2ccccc2)n[nH]1 |  | 6 | 41 |  |  |  | 
19 | COc1ccccc1OCC(=O)Nc1nnc(-c2ccc(C)cc2)[nH]1 |  |  |  |  | 1000 |  | 
20 | Cc1cccc(C)c1OCC(=O)Nc1nc(-c2ccccc2)n[nH]1 | 1700 | 43 | 49 |  | 5500 |  | 
21 | O=C(COc1ccc2c(c1)CCC2)Nc1nc(-c2ccccc2)n[nH]1 | 3900 | 9 | 46 |  | 2200 |  | 
22 | O=C(Nc1nnc(-c2ccccc2)[nH]1)c1ccccc1 | 400 |  |  |  | 300 | 1900 | 
23 | O=C(Nc1nc(-c2ccccc2)n[nH]1)c1ccccc1 |  | 72 |  |  |  |  | 
24 | O=C(COCc1ccccc1)Nc1nc(-c2ccccc2)n[nH]1 | 5000 | 7 |  |  | 4600 | 8100 | 
25 | Cc1cccc(OCC(=O)Nc2nc(-c3ccccc3)n[nH]2)c1 | 2000 | 8 |  |  | 1500 | 2300 | 

Row | Compound | Ki (Adenosine receptor A2a [1]) [nM] | inhibition [2] [%] | inhibition [3] [%] | inhibition (Adenosine receptor A2a [4]) [%] | Ki (Adenosine receptor A3) [nM] | Ki (Adenosine receptor A1) [nM] | inhibition [5] [%]
26 | Cc1ccc(C(=O)Nc2nc(-c3ccccc3)n[nH]2)cc1 | 300 | 29 |  |  | 100 | 1300 | 
27 | COc1ccccc1NC(=O)Nc1nnc(-c2ccccc2)[nH]1 | 200 |  |  |  | 300 |  | 
28 | O=C(CCc1ccccc1)Nc1nc(-c2ccccc2)n[nH]1 | 3400 | 40 | 40 |  | 8300 |  | 
29 | C[C@@H](Oc1cccc(Cl)c1)C(=O)Nc1nc(-c2ccccc2)n[nH]1 |  | 28 |  |  |  |  | 
30 | C[C@@H](Oc1ccccc1F)C(=O)Nc1nc(-c2ccccc2)n[nH]1 |  | 31 |  |  |  |  | 
31 | Cc1ccccc1OCC(=O)Nc1nnc(-c2ccccc2)[nH]1 | 1700 |  |  |  | 1000 |  | 
32 | O=C(COc1ccccc1)Nc1nc(-c2ccccc2)n[nH]1 |  | 16 | 20 |  |  |  | 
33 | Cc1ccc(-c2n[nH]c(NC(=O)COc3ccccc3)n2)cc1 |  | 23 |  |  |  |  | 
34 | Cc1ccccc1OCC(=O)Nc1nc(-c2ccccc2)n[nH]1 |  | 13 | 16 |  |  |  | 
35 | Cc1cccc(-c2n[nH]c(NC(=O)C(C)Oc3ccccc3)n2)c1 (centres undefined) |  | 5 | 8 |  |  |  | 
36 | Cc1cccc(-c2n[nH]c(NC(=O)[C@@H](C)Oc3ccccc3)n2)c1 | 1800 |  | 12 |  | 6300 |  | 
37 | CC(=O)Nc1nnc(-c2ccccc2)[nH]1 |  |  |  |  | 300 |  | 
38 | CC(=O)Nc1nc(-c2ccccc2)n[nH]1 |  | 10 | 18 | 43 |  |  | 
39 | Cc1ccc(O[C@H](C)C(=O)Nc2nc(-c3ccco3)n[nH]2)cc1 |  |  | 37 | 38 | 5300 |  | 
40 | O=C(COc1ccccc1)Nc1nnc(-c2ccccc2)[nH]1 | 1800 |  |  |  | 2300 |  | 
41 | O=C(Nc1nc(-c2ccccc2)n[nH]1)C1CCCO1 (centres undefined) | 5900 | -7 |  |  | 3100 | 3200 | 
42 | CC[C@@H](Oc1ccccc1)C(=O)Nc1nc(-c2ccccc2)n[nH]1 | 1400 | -9 |  |  | 1900 | 1500 | 
43 | CCCC(=O)Nc1nnc(-c2ccccc2)[nH]1 | 1100 |  |  |  | 200 | 800 | 
44 | C[C@@H](Oc1ccc(Cl)cc1)C(=O)Nc1nc(-c2ccccc2)n[nH]1 | 4000 | 51 |  |  | 2500 | 3900 | 
45 | Cc1cccc(-c2n[nH]c(NC(=O)[C@H](C)Oc3ccccc3)n2)c1 |  |  | 13 | 23 |  |  | 32
46 | Cc1cccc(O[C@H](C)C(=O)Nc2nc(-c3ccccc3)n[nH]2)c1 |  | 18 |  |  |  |  | 
47 | Cc1cccc(-c2nnc(NC(=O)C(C)Oc3ccccc3)[nH]2)c1 (centres undefined) | 2000 |  |  |  | 5900 |  | 
48 | C[C@@H](Sc1ccccc1)C(=O)Nc1nnc(-c2ccccc2)[nH]1 | 2200 |  |  |  | 1900 | 3300 | 
49 | O=C(COc1ccccc1)Nc1nc(-c2ccc(F)cc2)n[nH]1 | 3500 | -10 | 2 |  | 1500 |  | 
50 | COc1ccc(CC(=O)Nc2nc(-c3ccccc3)n[nH]2)cc1 |  | -6 | 29 |  |  |  | 
